According to ChEMBL document CHEMBL5356964, “Design, synthesis and anti-rheumatoid arthritis activity of target TLR4 inhibitors” (Bioorg Med Chem, 2024):
Active and inactive are the calls of the source. No cut-off for these calls is given here.

What was measured:
[1] = Antiproliferative activity against rat Synovial cell assessed as inhibition of cell growth incubated for 48 hrs by CCK-8 assay; format: functional, cell-based
RAW264.7 [2] = experiment: Antiproliferative activity against LPS-induced- mouse RAW264.7 cells assessed as inhibition of cell growth incubated for 24 hrs by CCK-8 assay; format: functional, cell-based; conditions: RAW264.7, 24 h
RAW264.7 [3] = experiment: Antiarthritic activity against LPS-induced mouse RAW264.7 cells assessed as reduction in IL-1beta level at 1 uM incubated for 24 hrs (Rvb 665.1 +/- 82.1 pg/L); format: functional
RAW264.7 [4] = experiment: Antiarthritic activity against LPS-induced mouse RAW264.7 cells assessed as reduction in IL-6 level at 1 uM incubated for 24 hrs (Rvb 231.1 +/- 24.2 pg/L); format: functional
RAW264.7 [5] = experiment: Antiarthritic activity against LPS-induced mouse RAW264.7 cells assessed as reduction in TNF-alpha level at 1 uM incubated for 24 hrs (Rvb 653.3 +/- 70.1 pg/L); format: functional
Toll-like receptor 4 [6] = molecular target: T1, Toll-like receptor 4 (Homo sapiens, UniProt O00206); experiment: Inhibition of TLR4 (unknown origin) using TMB as substrate incubated for 90 mins
RAW264.7 [7] = experiment: Antiarthritic activity against LPS-induced mouse RAW264.7 cells assessed as downregulation of JAK2 expression at 1 uM preincubated with compound for 24 hrs followed by LPS-induction and measured after 24 hrs by immunofluorescence analysis; format: functional, cell-based; conditions: time 48.0 hrs
RAW264.7 [8] = experiment: Antiproliferative activity against LPS-induced- mouse RAW264.7 cells assessed as cell survival at 1 uM pretreated with compound for 24 hrs followed by LPS induction and measured after 24 hrs; format: functional, cell-based; conditions: time 48.0 hrs
RAW264.7 [9] = experiment: Antiarthritic activity against LPS-induced mouse RAW264.7 cells assessed as downregulation of NF-kappaB expression at 1 uM preincubated with compound for 24 hrs followed by LPS-induction and measured after 24 hrs by immunofluorescence analysis; format: functional, cell-based; conditions: time 48.0 hrs
Mus musculus [10] = experiment: Antiarthritic activity against collagen-induced rheumatoid arthritis mouse model assessed as reduction in paw swelling at 100 mg/kg administered for 15 days and measured on day 28; format: functional, organism-based; conditions: time 28.0 day
RAW264.7 [11] = experiment: Antiarthritic activity against LPS-induced mouse RAW264.7 cells assessed as downregulation of TNF-alpha mRNA expression at 1 uM preincubated with compound for 24 hrs followed by LPS-induction and measured after 24 hrs by RT-PCR analysis; format: functional, cell-based; conditions: time 48.0 hrs
RAW264.7 [12] = experiment: Antiarthritic activity against LPS-induced mouse RAW264.7 cells assessed as reduction in IL-6 level at 1 uM pretreated with compound for 24 hrs followed by LPS induction and measured after 24 hrs; format: functional, cell-based; conditions: time 48.0 hrs
Toll-like receptor 4 [13] = molecular target: T1, Toll-like receptor 4; experiment: Potency index, ratio of methotrexate IC50 to test compound IC50 for inhibition of TLR4 (unknown origin) using TMB as substrate incubated for 90 mins
RAW264.7 [14] = experiment: Antiarthritic activity against LPS-induced mouse RAW264.7 cells assessed as downregulation of TLR4 expression at 1 uM preincubated with compound for 24 hrs followed by LPS-induction and measured after 24 hrs by Western blot analysis; format: functional, cell-based; conditions: time 48.0 hrs
RAW264.7 [15] = experiment: Antiarthritic activity against LPS-induced mouse RAW264.7 cells assessed as downregulation of STAT3 mRNA expression at 1 uM preincubated with compound for 24 hrs followed by LPS-induction and measured after 24 hrs by RT-PCR analysis; format: functional, cell-based; conditions: time 48.0 hrs
Mus musculus [16] = experiment: Antiarthritic activity against collagen-induced rheumatoid arthritis mouse model assessed as reduction in clinical score at 100 mg/kg administered for 15 days; format: functional, organism-based; conditions: time 15.0 day
RAW264.7 [17] = experiment: Antiarthritic activity against LPS-induced mouse RAW264.7 cells assessed as downregulation of JAK2 mRNA expression at 1 uM preincubated with compound for 24 hrs followed by LPS-induction and measured after 24 hrs by RT-PCR analysis; format: functional, cell-based; conditions: time 48.0 hrs
RAW264.7 [18] = experiment: Antiarthritic activity against LPS-induced mouse RAW264.7 cells assessed as downregulation of TLR4 expression at 1 uM preincubated with compound for 24 hrs followed by LPS-induction and measured after 24 hrs by immunofluorescence analysis; format: functional, cell-based; conditions: time 48.0 hrs
RAW264.7 [19] = experiment: Antiarthritic activity against LPS-induced mouse RAW264.7 cells assessed as downregulation of STAT3 expression at 1 uM preincubated with compound for 24 hrs followed by LPS-induction and measured after 24 hrs by immunofluorescence analysis; format: functional, cell-based; conditions: time 48.0 hrs
RAW264.7 [20] = experiment: Antiarthritic activity against LPS-induced mouse RAW264.7 cells assessed as reduction in TNF-alpha level at 1 uM pretreated with compound for 24 hrs followed by LPS induction and measured after 24 hrs; format: functional, cell-based; conditions: time 48.0 hrs
RAW264.7 [21] = experiment: Antiarthritic activity against LPS-induced mouse RAW264.7 cells assessed as downregulation of TLR4 mRNA expression at 1 uM preincubated with compound for 24 hrs followed by LPS-induction and measured after 24 hrs by RT-PCR analysis; format: functional, cell-based; conditions: time 48.0 hrs
Mus musculus [22] = experiment: Antiarthritic activity against collagen-induced rheumatoid arthritis mouse model assessed as reduction in IL-1beta level at 100 mg/kg administered for 15 days by ELISA analysis; format: functional, organism-based; conditions: time 15.0 day
RAW264.7 [23] = experiment: Antiarthritic activity against LPS-induced mouse RAW264.7 cells assessed as reduction in IL-1beta level at 1 uM pretreated with compound for 24 hrs followed by LPS induction and measured after 24 hrs; format: functional, cell-based; conditions: time 48.0 hrs
RAW264.7 [24] = experiment: Antiproliferative activity against LPS-induced- mouse RAW264.7 cells assessed as decrease in number of cells at 1 uM pretreated with compound for 24 hrs followed by LPS induction and measured after 24 hrs; format: functional, cell-based; conditions: time 48.0 hrs
RAW264.7 [25] = experiment: Antiarthritic activity against LPS-induced mouse RAW264.7 cells assessed as downregulation of NF-kappaB mRNA expression at 1 uM preincubated with compound for 24 hrs followed by LPS-induction and measured after 24 hrs by RT-PCR analysis; format: functional, cell-based; conditions: time 48.0 hrs
Mus musculus [26] = experiment: Antiarthritic activity against collagen-induced rheumatoid arthritis mouse model assessed as reduction in TNF-alpha level at 100 mg/kg administered for 15 days by ELISA analysis; format: functional, organism-based; conditions: time 15.0 day
RAW264.7 [27] = experiment: Antiarthritic activity against LPS-induced mouse RAW264.7 cells assessed as downregulation of NF-kappaB expression at 1 uM preincubated with compound for 24 hrs followed by LPS-induction and measured after 24 hrs by Western blot analysis; format: functional, cell-based; conditions: time 48.0 hrs
RAW264.7 [28] = experiment: Antiarthritic activity against LPS-induced mouse RAW264.7 cells assessed as downregulation of JAK2 expression at 1 uM preincubated with compound for 24 hrs followed by LPS-induction and measured after 24 hrs by Western blot analysis; format: functional, cell-based; conditions: time 48.0 hrs
Mus musculus [29] = experiment: Antiarthritic activity against collagen-induced rheumatoid arthritis mouse model assessed as reduction in IL-6 level at 100 mg/kg administered for 15 days by ELISA analysis; format: functional, organism-based; conditions: time 15.0 day
RAW264.7 [30] = experiment: Antiarthritic activity against LPS-induced mouse RAW264.7 cells assessed as downregulation of TNF-alpha expression at 1 uM preincubated with compound for 24 hrs followed by LPS-induction and measured after 24 hrs by Western blot analysis; format: functional, cell-based; conditions: time 48.0 hrs
RAW264.7 [31] = experiment: Antiarthritic activity against LPS-induced mouse RAW264.7 cells assessed as downregulation of STAT3 expression at 1 uM preincubated with compound for 24 hrs followed by LPS-induction and measured after 24 hrs by Western blot analysis; format: functional, cell-based; conditions: time 48.0 hrs
RAW264.7 [32] = experiment: Antiarthritic activity against LPS-induced mouse RAW264.7 cells assessed as downregulation of TNF-alpha expression at 1 uM preincubated with compound for 24 hrs followed by LPS-induction and measured after 24 hrs by immunofluorescence analysis; format: functional, cell-based; conditions: time 48.0 hrs

T1 sequence (O00206 whole entry): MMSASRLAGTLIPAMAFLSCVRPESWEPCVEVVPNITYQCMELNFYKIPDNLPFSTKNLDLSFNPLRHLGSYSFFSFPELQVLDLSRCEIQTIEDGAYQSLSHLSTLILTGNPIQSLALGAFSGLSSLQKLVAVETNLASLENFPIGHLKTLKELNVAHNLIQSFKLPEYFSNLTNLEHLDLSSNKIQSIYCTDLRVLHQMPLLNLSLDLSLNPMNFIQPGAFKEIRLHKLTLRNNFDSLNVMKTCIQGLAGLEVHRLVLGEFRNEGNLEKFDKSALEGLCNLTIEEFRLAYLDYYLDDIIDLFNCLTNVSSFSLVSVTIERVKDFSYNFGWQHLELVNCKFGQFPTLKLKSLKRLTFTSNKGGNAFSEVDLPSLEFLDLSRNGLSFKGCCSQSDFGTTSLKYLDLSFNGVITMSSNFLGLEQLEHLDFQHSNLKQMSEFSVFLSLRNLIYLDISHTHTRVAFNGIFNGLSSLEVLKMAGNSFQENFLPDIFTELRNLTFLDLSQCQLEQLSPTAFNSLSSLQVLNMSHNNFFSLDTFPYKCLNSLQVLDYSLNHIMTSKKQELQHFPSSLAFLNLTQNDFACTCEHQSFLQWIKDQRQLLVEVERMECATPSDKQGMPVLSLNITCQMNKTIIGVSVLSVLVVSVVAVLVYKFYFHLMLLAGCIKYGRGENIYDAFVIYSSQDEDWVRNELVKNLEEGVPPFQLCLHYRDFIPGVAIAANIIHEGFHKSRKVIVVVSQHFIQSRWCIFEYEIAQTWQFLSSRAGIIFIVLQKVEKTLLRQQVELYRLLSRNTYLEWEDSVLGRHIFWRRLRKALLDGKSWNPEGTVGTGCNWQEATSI

CCOC(=O)C1CCC(=O)C(C(=O)CC(C)=O)C1 (stereo not given)
IC50 [1]: 5440 nM
IC50 (RAW264.7 [2]): 2630 nM

CCCCC1CCC(=O)C(C(=O)CC(C)=O)C1 (stereo not given)
Activity (RAW264.7 [3]): 481.6 pg/L
Activity (RAW264.7 [4]): 187.4 pg/L
IC50 [1]: 2720 nM
IC50 (RAW264.7 [2]): 1560 nM
Activity (RAW264.7 [5]): 401.6 pg/L
IC50 (Toll-like receptor 4 [6]): 1860 nM

CC(=O)CC(=O)C1CC(c2ccccc2)CCC1=O (stereo not given)
IC50 [1]: 3950 nM
IC50 (RAW264.7 [2]): 2180 nM

CC(=O)CC(=O)C1CC(C)CCC1=O (stereo not given)
Activity (RAW264.7 [3]): 457.8 pg/L
Activity (RAW264.7 [4]): 176.6 pg/L
IC50 [1]: 3320 nM
IC50 (RAW264.7 [2]): 1690 nM
Activity (RAW264.7 [5]): 399.1 pg/L
IC50 (Toll-like receptor 4 [6]): 1150 nM

CC(=O)CC(=O)C1CC(O)CCC1=O (stereo not given)
Activity (RAW264.7 [7]): Active
Activity (RAW264.7 [8]): Active
Activity (RAW264.7 [3]): 258.3 pg/L
Activity (RAW264.7 [9]): Active
Activity (RAW264.7 [4]): 90.2 pg/L
Activity (Mus musculus [10]): Active
Activity (RAW264.7 [11]): Active
Activity (RAW264.7 [12]): Active
Ratio IC50 (Toll-like receptor 4 [13]): 2.4
Activity (RAW264.7 [14]): Active
Activity (RAW264.7 [15]): Active
Activity (Mus musculus [16]): Active
IC50 [1]: 1210 nM
Activity (RAW264.7 [17]): Active
IC50 (RAW264.7 [2]): 730 nM
Activity (RAW264.7 [18]): Active
Activity (RAW264.7 [19]): Active
Activity (RAW264.7 [20]): Active
Activity (RAW264.7 [21]): Active
Activity (Mus musculus [22]): Active
Activity (RAW264.7 [23]): Active
Activity (RAW264.7 [24]): Active
Activity (RAW264.7 [25]): Active
Activity (RAW264.7 [5]): 151.5 pg/L
Activity (Mus musculus [26]): Active
Activity (RAW264.7 [27]): Active
Activity (RAW264.7 [28]): Active
Activity (Mus musculus [29]): Active
IC50 (Toll-like receptor 4 [6]): 430 nM
Activity (RAW264.7 [30]): Active
Activity (RAW264.7 [31]): Active
Activity (RAW264.7 [32]): Active

CC(=O)CC(=O)C1CC(c2ccc(O)cc2)CCC1=O (stereo not given)
IC50 [1]: 7940 nM
IC50 (RAW264.7 [2]): 3210 nM
